14 compounds from US20010001104A1, “Thienopyridine compounds, their production and use” (priority 1998, published 2001) can be followed below.

As usually defined, the melting point is the temperature, or range, at which the solid turns liquid. Usually IC50 stands for the point on the concentration scale where inhibition reaches its midpoint. By inhibition is commonly meant the drop in the measured response relative to a control, in per cent.

In series [1] the target is T1, GnRH receptors (Rattus norvegicus, UniProt P30969).
T1 construct: Anterior lobes of the pituitary glands were isolated from forty Wistar rats; from tissue; host or cells: anterior lobe of the pituitary gland, male Wistar rats
T1 sequence (P30969 1-327): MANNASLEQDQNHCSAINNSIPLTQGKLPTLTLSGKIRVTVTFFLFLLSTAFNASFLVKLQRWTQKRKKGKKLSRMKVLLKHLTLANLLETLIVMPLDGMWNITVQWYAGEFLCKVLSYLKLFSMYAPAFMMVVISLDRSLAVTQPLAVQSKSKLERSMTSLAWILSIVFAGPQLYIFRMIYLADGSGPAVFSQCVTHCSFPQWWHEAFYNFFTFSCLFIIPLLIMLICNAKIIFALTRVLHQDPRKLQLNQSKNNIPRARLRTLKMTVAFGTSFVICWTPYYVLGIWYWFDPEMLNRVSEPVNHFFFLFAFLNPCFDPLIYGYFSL
Nature of the series: 125I-leuprorelin binding inhibition, rat pituitary anterior lobe membrane fraction. As to conditions: for IC50: Hill plot; for inhibition at 1 µM: read-out: binding inhibition rate (%) Rat (1 μM). As for the experimental part:
After stirring, 10 μl of 0.001% H2O2 was added, and a reaction was carried out at room temperature for 20 minutes. By adding 700 μl of a 0.05% TFA (trifluoroacetic acid) solution, the reaction was stopped, followed by purification by reversed-phase HPLC. […] Anterior lobes of the pituitary glands were isolated from forty Wistar rats (8 weeks old, male), and washed with ice-cooled homogenate buffer [25 mM Tris (tris(hydroxymethyl)aminomethane)-HCl, 0.3M sucrose, 1 mM EGTA (glycol-etherdiamine-N,N,N′,N′-tetraacetic acid), 0.25 mM PMSF (phenylmethylsulfonyl fluoride), 10 U/ml aprotinin, […] pepstatin, […] leupeptin, […], 0.03% sodium azide, pH 7.5]. The pituitary tissue was floated in 2 ml of the homogenate buffer and homogenized using a Polytron homogenizer. The homogenate was centrifuged at 700×g for 15 minutes. The supernatant was taken in an ultracentrifuge tube and centrifuged at 100, 000×g for 1 hour to provide a membrane fraction pellet. This pellet was suspended in 2 ml of assay buffer [25 mM Tris-HCl, 1 mM EDTA (ethylenediaminetetraacetic acid), 0.1% BSA (bovine serum albumin), 0.25 mM PMSF, 1 mg/ml pepstatin, 20 mg/ml leupeptin, […], 0.03% sodium azide, pH 7.5) and the suspension was centrifuged at 100,000×g for 1 hour. The membrane fraction recovered as a pellet was resuspended in 10 ml of assay buffer, divided into portions, preserved at −80° C. and thawed when needed. […] Where the rat or bovine pituitary anterior lobe membrane fraction was used, the reaction was conducted at 4° C. for 90 minutes. Where the membrane fraction of the CHO with human GnRH receptors expressed was used, the reaction was carried out at 25° C. for 60 minutes. After each reaction, the reaction mixture was aspirated and filtered through a polyethyleneimine-treated Whatman glass filter (GF-F). […] The expression (TB-SB)/(TB-NSB)×100 (where SB= radioactivity with the compound added, TB=maximum bound radioactivity, NSB=nonspecifically bound radioactivity) was calculated to find the binding inhibition rate (%) of each test compound.

Series [2] deals with T2, human GnRH receptor (Homo sapiens, UniProt P30968).
T2 construct: expressed in transfected cells; host or cells: CHO (Chinese hamster ovarian) cells
T2 sequence (P30968 1-328): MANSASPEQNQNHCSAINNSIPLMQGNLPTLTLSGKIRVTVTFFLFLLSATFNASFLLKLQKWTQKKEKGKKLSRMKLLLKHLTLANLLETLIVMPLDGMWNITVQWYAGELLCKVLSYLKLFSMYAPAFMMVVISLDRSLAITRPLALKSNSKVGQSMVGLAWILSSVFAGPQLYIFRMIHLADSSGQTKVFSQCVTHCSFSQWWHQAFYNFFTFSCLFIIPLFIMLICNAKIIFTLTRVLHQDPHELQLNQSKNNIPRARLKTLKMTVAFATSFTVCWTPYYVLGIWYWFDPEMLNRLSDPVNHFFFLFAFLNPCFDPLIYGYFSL
As to the kind of experiment: 125I-leuprorelin binding inhibition, CHO cell membrane fraction containing human GnRH receptor. As for the experimental part: After stirring, 10 μl of 0.001% H2O2 was added, and a reaction was carried out at room temperature for 20 minutes. By adding 700 μl of a 0.05% TFA (trifluoroacetic acid) solution, the reaction was stopped, followed by purification by reversed-phase HPLC. […] To the cell pellet, 10 ml of a cell homogenate buffer (10 mM NaHCO3, 5 mM EDTA, pH 7.5) was added, followed by homogenization using the Polytron homogenizer. After centrifugation at 400×g for 15 minutes, the supernatant was transferred to an ultracentrifugation tube and centrifuged at 100,000×g for 1 hour to yield a membrane fraction precipitate. This precipitate was suspended in 2 ml of an assay buffer and centrifuged at 100,000×g for 1 hour. The membrane fraction recovered as a precipitate was again suspended in 20 ml of the assay buffer, dispensed, and stored at −80° C. before use upon thawing. […] Where the rat or bovine pituitary anterior lobe membrane fraction was used, the reaction was conducted at 4° C. for 90 minutes. Where the membrane fraction of the CHO with human GnRH receptors expressed was used, the reaction was carried out at 25° C. for 60 minutes. After each reaction, the reaction mixture was aspirated and filtered through a polyethyleneimine-treated Whatman glass filter (GF-F). […] The expression (TB-SB)/(TB-NSB)×100 (where SB= radioactivity with the compound added, TB=maximum bound radioactivity, NSB=nonspecifically bound radioactivity) was calculated to find the binding inhibition rate (%) of each test compound.

Series [3] relates to blood LH. As to the kind of experiment: Suppression of blood LH in castrated monkeys. The series is classed as in vivo, cynomolgus monkeys (Macaca fascicularis). The note with it: castrated male cynomolgus monkeys; 30 mg/kg oral; values only in FIG. 1. As for the experimental part:
The compound produced in Example 1-2 was orally administered to castrated male cynomolgus monkeys (Macaca fascicularis), and blood LH was quantified. The male cynomolgus monkeys, used at 3 years 8 months to 7 years 7 months of age at time of experimentation, had been castrated more than half a year prior to the examination. Test animals [n =2; compound (1) and compound (2)] were given 30 mg/kg (3 ml/kg) of the compound suspended in 0.5% methyl cellulose at a final concentration of 1% by oral administration, and control animals [n=3; control (1), control (2) and control (3)] were given 3 ml/kg of the 0.5% methyl cellulose dispersant alone by oral administration. […]
Plasma LH concentrations were determined by a bioassay using mouse testicular cells. […] The testosterone concentration in the culture supernatant was determined by a radioimmunoassay (CIS Diagnostics Company), and the LH concentration in the test monkey plasma was calculated from the standard curve for the standard equine LH.
For the control (1), the control (2), and the control (3), changes over time in the LH concentrations in each animal are expressed as percent ratios to the respective reference values, which comprise the LH concentrations immediately before administration in each control animal (cynomolgus monkey). […]

Where [4] appears, read: rat pituitary anterior lobe membrane fraction, 125I-leuprorelin.

Read-outs that look alike come from different tables or passages of the source.

For `CC(C)C(=O)c1cn(Cc2c(F)cccc2F)c2sc(-c3ccc(NC(=O)[C@H](C)CO)cc3)c(CN(C)Cc3ccccc3)c2c1=O` [Example 10-1, (R)-4,7-dihydro-2-[4-(3-hydroxy-2-methylpropionylamino)phenyl]-7-(2,6-difluorobenzyl)-3-(N-benzyl-N-methylaminomethyl)-5-isobutyryl-4-oxothieno[2,3-b]pyridine], the melting point lay within 161 to 162 °C.

`CC(C)C(=O)c1cn(Cc2c(F)cccc2F)c2sc(-c3ccc(NC(=O)[C@H](C)CO)cc3)c(CN(C)Cc3ccccc3)c2c1=O.Cl` yielded a melting point of 214 to 216 °C. `CONC(=O)Nc1ccc(-c2sc3c(c2CN(C)Cc2ccccc2)c(=O)c(C(=O)C(C)C)cn3Cc2c(F)cccc2F)cc1.Cl`: the melting point lay in the range of 225 to 230 °C. With `CC(C)C(=O)c1cn(Cc2c(F)cccc2F)c2sc(-c3ccc(NC(=O)C4(O)CC4)cc3)c(CN(C)Cc3ccccc3)c2c1=O.Cl`, the melting point fell in the range of 220 to 222 °C. Still for that read-out and setting: in the case of `CC(C)C(=O)c1cn(Cc2c(F)cccc2F)c2sc(-c3ccc(NC(=O)C(C)(C)O)cc3)c(CN(C)Cc3ccccc3)c2c1=O.Cl` it was 213 to 215 °C. For the compound `CC(C)C(=O)c1cn(Cc2c(F)cccc2F)c2sc(-c3ccc(NC(=O)C(C)CO)cc3)c(CN(C)Cc3ccccc3)c2c1=O` (stereo not shown) [Example 3, 3-(N-benzyl-N-methylaminomethyl)-4,7-dihydro-5-isobutyryl-7-(2,6-difluorobenzyl)-2-[4-(3-hydroxy-2-methylpropionylamino)phenyl]-4-oxothieno[2,3-b]pyridine], the melting point was in the range of 161 to 162 °C. For the same compound, the IC50 in series [1] (setting [4]) was 0.6 µM. Further, the inhibition at 1 µM in series [1] was found to be 62%. Besides, the IC50 in series [2] stood at 0.0002 µM.

For the compound `CN(Cc1ccccc1)Cc1c(-c2ccc(NC(=O)C(C)(C)O)cc2)sc2c1c(=O)c(C(=O)c1ccccc1)cn2Cc1c(F)cccc1F` [Example 22, 3-(N-benzyl-N-methylaminomethyl)-5-benzoyl-7-(2,6-difluorobenzyl)-4,7-dihydro-2-[4-(2-hydroxy-2-methylpropionylamino)phenyl]-4-oxothieno[2,3-b]pyridine], the melting point lay in the range of 222 to 223 °C.

In turn, `CC(C)C(=O)Nc1ccc(-c2sc3c(c2CN(C)Cc2ccccc2)c(=O)c(C(=O)C(C)(C)O)cn3Cc2c(F)cccc2F)cc1` [Example 7, 3-(N-benzyl-N-methylaminomethyl)-4,7-dihydro-7-(2,6-difluorobenzyl)-2-(4-isobutyrylaminophenyl)-5-(2-hydroxy-2-methylpropionyl)-4-oxothieno[2,3-b]pyridine] showed a melting point of 170 to 172 °C. As to `CC(C)C(=O)c1cn(Cc2c(F)cccc2F)c2sc(-c3ccc(NC(=O)C(C)(C)O)cc3)c(CN(C)Cc3ccccc3)c2c1=O` [Example 11-1, 4,7-dihydro-2-[4-(2-hydroxy-2-methylpropionylamino)phenyl]-7-(2,6-difluorobenzyl)-3-(N-benzyl-N-methylaminomethyl)-5-isobutyryl-4-oxothieno[2,3-b]pyridine], the melting point was in the range of 178 to 180 °C. Still for that read-out and setting: as for `CC(C)C(=O)c1cn(Cc2c(F)cccc2F)c2sc(-c3ccc(NC(=O)CC(C)(C)O)cc3)c(CN(C)Cc3ccccc3)c2c1=O.Cl`, the figure is 216 to 218 °C; as for `C[C@H](CO)C(=O)Nc1ccc(-c2sc3c(c2CN(C)Cc2ccccc2)c(=O)c(C(=O)c2ccccc2)cn3Cc2c(F)cccc2F)cc1` [Example 23], 145 to 146 °C. Compound `CC(C)C(=O)c1cn(Cc2c(F)cccc2F)c2sc(-c3ccc(NC(=O)CO)cc3)c(CN(C)Cc3ccccc3)c2c1=O.Cl` gave a melting point of 197 to 199 °C. On the same count and under the same terms, in the case of `CN(Cc1ccccc1)Cc1c(-c2ccc(NC(=O)C3(O)CC3)cc2)sc2c1c(=O)c(C(=O)c1ccccc1)cn2Cc1c(F)cccc1F` [Example 21] it was 186 to 188 °C. The compound `CC(C)C(=O)c1cn(Cc2c(F)cccc2F)c2sc(-c3ccc(NC(=O)C4CC4)cc3)c(CN(C)Cc3ccccc3)c2c1=O.Cl` [Example 1-2, 3-(N-benzyl-N-methylaminomethyl)-4,7-dihydro-5-isobutyryl-7-(2,6-difluorobenzyl)-2-(4-cyclopropanecarbonylaminophenyl)-4-oxothieno[2,3-b]pyridine Hydrochloride] yielded a melting point of 254 to 256 °C. In addition, in series [1] (1 μM compound, rat pituitary anterior lobe membrane fraction, 125I-leuprorelin, 4° C., 90 minutes), the inhibition at 1 µM came out at 96%. Moreover, the IC50 in series [1] (setting [4]) was determined as 0.06 µM. The inhibition at 20 µM in series [2] (20 μM compound, CHO membrane fraction with human GnRH receptors, 125I-leuprorelin, 25° C., 60 minutes, read-out: binding inhibition rate (%) Human (20 μM)) came out at 102%. Moreover, the IC50 in series [2] (CHO membrane fraction with human GnRH receptors, 125I-leuprorelin, Hill plot, read-out: IC50 value (μM) Human) turned out to be 0.0001 µM. Also, the “plasma LH concentrations” value in series [3] is “suppression of plasma LH concentrations”.
